Common to all, as to type: biochemical
For experiment [1], the target named is c-Abl (His-tagged recombinant human ABL1) (Homo sapiens (Human), UniProt P00519). The experiment is described as follows: c-abl Kinase Assay (ADP-Glo). As to conditions: ATP (25 μM), Abltide substrate. The method in brief:
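His-tagged human ABL1 (0.25 ng/μl), Abltide (0.01 μg/μl) and ATP (25 μM), each at its added concentration, reacted with compound (0.5% DMSO) for 30 min at 30 °C. Buffer was 50 mM HEPES pH 7.5, 10 mM MgCl2, 1 mM EGTA, 0.05% BSA, 0.01% Triton X-100, 2 mM DTT. ADP formed was read by ADP-Glo luminescence, and IC50 was fitted from percent inhibition across concentrations.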

A further experiment addresses LRRK2 (WT) (Homo sapiens (Human), UniProt Q5S007). The experiment is described as follows: LRRK2 Kinase Assay (Adapta). As to conditions: 70 μM ATP, LRRKtide substrate. A digest of the protocol:
(§1)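 Adapta TR-FRET kinase assay with LRRKtide substrate in 50 mM Tris pH 8.5, 0.01% BRIJ-35, 10 mM MgCl2, 1 mM EGTA, 0.02% NaN3. ATP at Km: 70 μM for WT LRRK2, 100 μM for G2019S. Reaction 1 h at room temperature; after 60 min with detection mix, 665/615 nm emission ratio read.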

The target in a further experiment is LRRK2 G2019S (Homo sapiens (Human), UniProt Q5S007, G2019S). The experiment is described as follows: LRRK2 G2019S Kinase Assay (Adapta). As to conditions: 100 μM ATP, LRRKtide substrate; read-out: LRRK2_G2019S IC50. The method in brief: as §1
Sequence of LRRK2 G2019S (Q5S007 whole entry G2019S): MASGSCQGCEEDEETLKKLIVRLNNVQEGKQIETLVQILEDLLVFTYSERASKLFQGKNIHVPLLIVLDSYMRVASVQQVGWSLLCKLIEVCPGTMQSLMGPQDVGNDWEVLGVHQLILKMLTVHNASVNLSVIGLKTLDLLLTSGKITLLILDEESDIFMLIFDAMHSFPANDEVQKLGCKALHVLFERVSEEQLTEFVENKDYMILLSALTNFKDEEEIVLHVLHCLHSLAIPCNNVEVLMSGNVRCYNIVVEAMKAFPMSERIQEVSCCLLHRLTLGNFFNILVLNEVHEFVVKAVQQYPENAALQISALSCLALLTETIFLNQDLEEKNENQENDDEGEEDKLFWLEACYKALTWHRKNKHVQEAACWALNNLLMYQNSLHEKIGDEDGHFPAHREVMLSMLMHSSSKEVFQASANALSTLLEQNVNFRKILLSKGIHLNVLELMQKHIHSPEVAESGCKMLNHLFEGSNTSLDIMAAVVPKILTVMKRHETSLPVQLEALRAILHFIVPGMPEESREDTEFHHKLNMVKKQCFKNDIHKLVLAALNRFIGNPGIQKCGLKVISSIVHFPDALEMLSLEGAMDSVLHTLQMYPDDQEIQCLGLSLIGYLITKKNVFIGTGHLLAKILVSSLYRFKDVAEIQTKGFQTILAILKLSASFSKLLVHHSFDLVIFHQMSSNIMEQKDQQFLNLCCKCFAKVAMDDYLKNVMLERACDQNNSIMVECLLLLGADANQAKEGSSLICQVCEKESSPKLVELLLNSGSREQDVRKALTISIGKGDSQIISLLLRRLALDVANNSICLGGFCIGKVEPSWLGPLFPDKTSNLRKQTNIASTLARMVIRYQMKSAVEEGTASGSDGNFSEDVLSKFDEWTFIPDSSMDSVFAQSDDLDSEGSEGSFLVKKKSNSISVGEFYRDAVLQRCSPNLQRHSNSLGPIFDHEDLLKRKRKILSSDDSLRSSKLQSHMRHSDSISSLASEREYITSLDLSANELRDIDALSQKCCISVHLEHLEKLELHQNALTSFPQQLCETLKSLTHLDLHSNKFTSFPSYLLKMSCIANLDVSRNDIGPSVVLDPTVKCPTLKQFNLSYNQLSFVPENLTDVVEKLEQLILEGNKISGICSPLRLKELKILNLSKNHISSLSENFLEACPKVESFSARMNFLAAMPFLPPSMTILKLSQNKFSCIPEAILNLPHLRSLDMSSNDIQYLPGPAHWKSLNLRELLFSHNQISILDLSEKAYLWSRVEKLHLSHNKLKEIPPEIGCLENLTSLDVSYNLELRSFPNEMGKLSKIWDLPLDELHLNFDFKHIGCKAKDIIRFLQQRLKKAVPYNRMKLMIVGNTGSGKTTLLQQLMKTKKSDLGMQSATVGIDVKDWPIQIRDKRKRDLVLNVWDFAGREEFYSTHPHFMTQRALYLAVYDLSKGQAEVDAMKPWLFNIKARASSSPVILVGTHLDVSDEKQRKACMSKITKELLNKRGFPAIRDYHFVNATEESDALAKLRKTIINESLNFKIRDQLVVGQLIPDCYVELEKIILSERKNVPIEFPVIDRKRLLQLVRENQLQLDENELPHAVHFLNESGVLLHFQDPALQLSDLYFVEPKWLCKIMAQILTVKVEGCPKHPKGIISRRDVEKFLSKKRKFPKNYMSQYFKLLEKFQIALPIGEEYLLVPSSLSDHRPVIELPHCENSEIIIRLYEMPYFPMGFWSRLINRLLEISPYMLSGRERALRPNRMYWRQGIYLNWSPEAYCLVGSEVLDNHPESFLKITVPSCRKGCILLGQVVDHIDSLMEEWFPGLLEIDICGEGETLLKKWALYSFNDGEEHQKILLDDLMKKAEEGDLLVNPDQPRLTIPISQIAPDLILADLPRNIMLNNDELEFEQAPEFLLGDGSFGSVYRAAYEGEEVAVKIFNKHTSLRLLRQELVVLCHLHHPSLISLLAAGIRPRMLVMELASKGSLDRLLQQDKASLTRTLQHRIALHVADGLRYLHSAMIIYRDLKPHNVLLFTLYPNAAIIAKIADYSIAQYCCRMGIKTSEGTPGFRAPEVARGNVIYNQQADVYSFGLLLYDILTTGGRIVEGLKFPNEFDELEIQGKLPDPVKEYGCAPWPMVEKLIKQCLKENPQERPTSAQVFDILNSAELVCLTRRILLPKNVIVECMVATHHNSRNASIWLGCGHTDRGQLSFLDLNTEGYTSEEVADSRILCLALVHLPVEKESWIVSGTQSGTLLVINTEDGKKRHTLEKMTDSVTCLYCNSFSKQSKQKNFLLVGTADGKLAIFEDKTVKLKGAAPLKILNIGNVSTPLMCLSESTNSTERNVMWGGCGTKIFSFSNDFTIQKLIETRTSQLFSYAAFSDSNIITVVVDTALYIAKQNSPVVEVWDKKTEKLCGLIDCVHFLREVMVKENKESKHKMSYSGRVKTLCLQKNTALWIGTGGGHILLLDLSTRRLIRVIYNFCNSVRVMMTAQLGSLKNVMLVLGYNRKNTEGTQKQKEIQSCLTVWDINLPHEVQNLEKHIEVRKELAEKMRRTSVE

SMILES strings stand for the structures. Counter-ions that a name gives are not always drawn.

Sequence of LRRK2 (WT) (Q5S007 whole entry): as the sequence (Q5S007 whole entry G2019S) above, with S2019G counted along it
Sequence of c-Abl (His-tagged recombinant human ABL1) (P00519 whole entry): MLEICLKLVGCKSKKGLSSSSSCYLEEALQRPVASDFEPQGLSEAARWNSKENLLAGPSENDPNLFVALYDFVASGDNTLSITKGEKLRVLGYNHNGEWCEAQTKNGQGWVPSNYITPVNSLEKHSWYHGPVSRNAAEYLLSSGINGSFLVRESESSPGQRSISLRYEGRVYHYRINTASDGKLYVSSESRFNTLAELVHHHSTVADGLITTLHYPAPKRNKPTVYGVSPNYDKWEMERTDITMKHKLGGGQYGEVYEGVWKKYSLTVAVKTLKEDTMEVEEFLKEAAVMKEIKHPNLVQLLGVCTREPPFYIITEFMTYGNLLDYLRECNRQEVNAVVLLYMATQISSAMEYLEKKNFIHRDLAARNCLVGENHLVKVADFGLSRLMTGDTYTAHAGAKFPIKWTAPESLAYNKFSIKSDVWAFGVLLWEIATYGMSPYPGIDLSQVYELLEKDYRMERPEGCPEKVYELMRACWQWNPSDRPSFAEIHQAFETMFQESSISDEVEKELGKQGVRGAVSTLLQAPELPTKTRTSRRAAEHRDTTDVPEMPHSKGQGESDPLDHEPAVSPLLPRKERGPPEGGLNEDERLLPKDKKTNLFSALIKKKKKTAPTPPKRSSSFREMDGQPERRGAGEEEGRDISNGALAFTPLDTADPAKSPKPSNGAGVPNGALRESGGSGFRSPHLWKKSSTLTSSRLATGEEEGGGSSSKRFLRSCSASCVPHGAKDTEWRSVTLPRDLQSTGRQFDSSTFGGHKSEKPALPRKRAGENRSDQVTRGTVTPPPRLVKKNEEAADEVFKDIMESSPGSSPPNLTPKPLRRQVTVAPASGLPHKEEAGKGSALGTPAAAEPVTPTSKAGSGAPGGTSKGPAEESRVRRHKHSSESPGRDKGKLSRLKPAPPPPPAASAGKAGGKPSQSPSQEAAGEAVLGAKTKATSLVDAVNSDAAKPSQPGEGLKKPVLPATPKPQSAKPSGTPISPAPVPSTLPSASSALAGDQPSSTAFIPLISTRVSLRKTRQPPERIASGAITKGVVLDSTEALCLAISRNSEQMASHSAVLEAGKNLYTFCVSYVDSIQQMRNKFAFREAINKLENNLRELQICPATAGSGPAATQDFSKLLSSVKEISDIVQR

For the compound `Cc1cccc(Cl)c1-c1ccc2nc(NC(=O)[C@@H]3C[C@@H]3F)cn2c1` [Example 52, (1S,2S)—N-(6-(2-chloro-6-methylphenyl)imidazo[1,2-a]pyridin-2-yl)-2-fluorocyclopropane-1-carboxamide], the IC50 (in general, the midpoint of a concentration-inhibition curve) in experiment [1] was < 10 nM; against LRRK2 (WT), 101 to 1000 nM; at LRRK2 G2019S it was 10 to 100 nM.

For `Cc1ccc(-c2ccc3nc(NC(=O)[C@@H]4C[C@@H]4F)cn3c2)c(C)c1` [Example 32, (1S,2S)—N-(6-(2,4-dimethylphenyl)imidazo[1,2-a]pyridin-2-yl)-2-fluorocyclopropane-1-carboxamide], the IC50 is < 10 nM in experiment [1], 101 to 1000 nM at LRRK2 (WT) and 101 to 1000 nM at LRRK2 G2019S.

Regarding `COC(=O)c1ccc(C)c(-c2ccc3nc(NC(=O)[C@@H]4C[C@@H]4F)cn3c2)c1` [Example 13, methyl 3-(2-((1S,2S)-2-fluorocyclopropane-1-carboxamido)imidazo[1,2-a]pyridin-6-yl)-4-methylbenzoate], the IC50 in experiment [1] is < 10 nM; against LRRK2 (WT), > 1000 nM; at LRRK2 G2019S, > 1000 nM.

Regarding `CNCc1c(F)cccc1-c1ccc2nc(NC(=O)[C@@H]3C[C@@H]3F)cn2c1` [Example 80, (1S,2S)-2-fluoro-N-(6-(3-fluoro-2-((methylamino)methyl)phenyl)imidazo[1,2-a]pyridin-2-yl)cyclopropanecarboxamide], the IC50 (in experiment [1]; against LRRK2 (WT); at LRRK2 G2019S) was > 1000 nM throughout.

Take `Cc1c(F)cncc1-c1ccc2nc(NC(=O)[C@@H]3C[C@@H]3F)c(C)n2c1` [Example 10, (1S,2S)-2-fluoro-N-(6-(5-fluoro-4-methylpyridin-3-yl)-3-methylimidazo[1,2-a]pyridin-2-yl)cyclopropane-1-carboxamide]: the figures for the IC50 (in experiment [1]; against LRRK2 (WT); on LRRK2 G2019S) were 101 to 1000 nM, > 1000 nM and > 1000 nM, respectively.

As for `Cc1ccc(C)c(-c2ccc3nc(NC(=O)[C@@H]4C[C@@H]4F)cn3c2)c1` [Example 34, (1S,2S)—N-(6-(2,5-dimethylphenyl)imidazo[1,2-a]pyridin-2-yl)-2-fluorocyclopropane-1-carboxamide], the IC50 in experiment [1] was < 10 nM; against LRRK2 (WT), 101 to 1000 nM; at LRRK2 G2019S, 101 to 1000 nM.

Consider `Cc1cccc(F)c1-c1ccc2nc(NC(=O)[C@@H]3C[C@@H]3F)c(Cl)n2c1` [Example 4, (1S,2S)—N-(3-chloro-6-(2-fluoro-6-methylphenyl)imidazo[1,2-a]pyridin-2-yl)-2-fluorocyclopropane-1-carboxamide], for which the IC50 in experiment [1] was 10 to 100 nM; on LRRK2 (WT), > 1000 nM; on LRRK2 G2019S it was 101 to 1000 nM.

In the case of `Cc1c(F)ccc(F)c1-c1ccc2nc(NC(=O)[C@@H]3C[C@@H]3F)cn2c1` [Example 45, (1S,2S)—N-(6-(3,6-difluoro-2-methylphenyl)imidazo[1,2-a]pyridin-2-yl)-2-fluorocyclopropane-1-carboxamide], the figures for the IC50 (in experiment [1]; against LRRK2 (WT); at LRRK2 G2019S) were < 10 nM, 101 to 1000 nM and 10 to 100 nM, respectively.

`Cc1c(F)cccc1-c1ccc2nc(NC(=O)[C@@H]3C[C@@H]3F)cn2c1` [Example 1, (1S,2S)-2-fluoro-N-(6-(3-fluoro-2-methylphenyl)imidazo[1,2-a]pyridin-2-yl)cyclopropane-1-carboxamide Hydrochloride]: the IC50 in experiment [1] was < 10 nM; against LRRK2 (WT) it was 10 to 100 nM; at LRRK2 G2019S, 10 to 100 nM.

With `Cc1c(F)cccc1-c1ccc2nc(NC(=O)C3CC(F)C3)cn2c1` (stereo not drawn) [Example 78, 3-fluoro-N-(6-(3-fluoro-2-methylphenyl)imidazo[1,2-a]pyridin-2-yl)cyclobutanecarboxamide], the IC50 in experiment [1] was in the range of 10 to 100 nM; on LRRK2 (WT), 101 to 1000 nM; at LRRK2 G2019S, 10 to 100 nM.

Consider `Cc1cc(F)cc(C)c1-c1ccc2nc(NC(=O)[C@@H]3C[C@@H]3F)cn2c1` [Example 38, (1S,2S)-2-fluoro-N-(6-(4-fluoro-2,6-dimethylphenyl)imidazo[1,2-a]pyridin-2-yl)cyclopropane-1-carboxamide], for which the IC50 was < 10 nM in experiment [1], 101 to 1000 nM at LRRK2 (WT) and 101 to 1000 nM on LRRK2 G2019S.

Turning to `Cc1ccc(Cl)cc1-c1ccc2nc(NC(=O)[C@@H]3C[C@@H]3F)cn2c1` [Example 26, (1S,2S)—N-(6-(5-chloro-2-methylphenyl)imidazo[1,2-a]pyridin-2-yl)-2-fluorocyclopropane-1-carboxamide], the IC50 was < 10 nM in experiment [1], 101 to 1000 nM against LRRK2 (WT) and 101 to 1000 nM at LRRK2 G2019S.

For the compound `Cc1c(F)cc(N)cc1-c1ccc2nc(NC(=O)[C@@H]3C[C@@H]3F)cn2c1` [Example 50, (1S,2S)—N-(6-(5-amino-3-fluoro-2-methylphenyl)imidazo[1,2-a]pyridin-2-yl)-2-fluorocyclopropane-1-carboxamide], the IC50 in experiment [1] was < 10 nM; at LRRK2 (WT), 10 to 100 nM; on LRRK2 G2019S, 10 to 100 nM.

For `Cc1ccc(F)cc1-c1ccc2nc(NC(=O)[C@@H]3C[C@@H]3F)cn2c1` [Example 11, (1S,2S)-2-fluoro-N-(6-(5-fluoro-2-methylphenyl)imidazo[1,2-a]pyridin-2-yl)cyclopropane-1-carboxamide], the IC50 in experiment [1] is < 10 nM; against LRRK2 (WT), 10 to 100 nM; on LRRK2 G2019S it was 10 to 100 nM.

Turning to `Cc1ccsc1-c1ccc2nc(NC(=O)[C@@H]3C[C@@H]3F)cn2c1` [Example 41, (1S,2S)-2-fluoro-N-(6-(3-methylthiophen-2-yl)imidazo[1,2-a]pyridin-2-yl)cyclopropane-1-carboxamide], the IC50 is < 10 nM in experiment [1], 10 to 100 nM against LRRK2 (WT) and 10 to 100 nM on LRRK2 G2019S.

Regarding `Cc1c(F)cccc1-c1ccc2nc(NC(=O)[C@@H]3C[C@@H]3F)c(F)n2c1` [Example 33, (1S,2S)-2-fluoro-N-(3-fluoro-6-(3-fluoro-2-methylphenyl)imidazo[1,2-a]pyridin-2-yl)cyclopropane-1-carboxamide], the IC50 in experiment [1] was < 10 nM; against LRRK2 (WT), 101 to 1000 nM; at LRRK2 G2019S it was 101 to 1000 nM.

As to `Cc1cc(F)ncc1-c1ccc2nc(NC(=O)[C@@H]3C[C@@H]3F)cn2c1` [Example 67, (1S,2S)-2-fluoro-N-(6-(6-fluoro-4-methylpyridin-3-yl)imidazo[1,2-a]pyridin-2-yl)cyclopropanecarboxamide], the IC50 (in experiment [1]; against LRRK2 (WT); at LRRK2 G2019S) was 10 to 100 nM throughout.

Consider `Cc1cccc(F)c1-c1ccc2nc(NC(=O)[C@@H]3C[C@@H]3F)c(C)n2c1` [Example 9, (1S,2S)-2-fluoro-N-(6-(2-fluoro-6-methylphenyl)-3-methylimidazo[1,2-a]pyridin-2-yl)cyclopropane-1-carboxamide], for which the values for the IC50 (in experiment [1]; on LRRK2 (WT); at LRRK2 G2019S) were 10 to 100 nM, 101 to 1000 nM and 101 to 1000 nM, respectively.

For `Cc1c(F)cccc1-c1ccc2nc(NC(=O)[C@H]3C[C@H]3F)cn2c1` (stereo in doubt) [Example 73, 2-fluoro-N-(6-(3-fluoro-2-methylphenyl)imidazo[1,2-a]pyridin-2-yl)cyclopropanecarboxamide], the IC50 was < 10 nM in experiment [1], 101 to 1000 nM on LRRK2 (WT) and 10 to 100 nM on LRRK2 G2019S.

Turning to `CN(C)Cc1c(F)cccc1-c1ccc2nc(NC(=O)[C@@H]3C[C@@H]3F)cn2c1` [Example 84, (1S,2S)—N-(6-(2-((dimethylamino)methyl)-3-fluorophenyl)imidazo[1,2-a]pyridin-2-yl)-2-fluorocyclopropanecarboxamide], the IC50 (in experiment [1]; on LRRK2 (WT); on LRRK2 G2019S) was > 1000 nM throughout.

(Values after patent publication US11098044B2, “Imidazopyridinyl compounds and use thereof for treatment of neurodegenerative disorders” (1ST Biotherapeutics, Inc., priority 2019, dated 2021).)
